US6274715A, “Tricyclic erythromycin derivatives” (priority 1997, dated 2001)
Values after ≈ are worked out from the molar mass of the structure shown.

Tests used:
Type in all cases: cell-based
[1] = system: KLEBSIELLA PNEUMONIAE ATCC 8045; experiment: In vitro antibacterial activity, MIC, BHI agar dilution; conditions: K. pneumoniae ATCC 8045, unit assumed
[2] = system: PSEUDOMONAS AERUGINOSA DPHD-5263; experiment: as above; conditions: P. aeruginosa DPHD-5263, unit assumed
[3] = system: PROVIDENCIA STUARTII CMX 640; conditions: P. stuartii CMX 640; BHI agar; unit assumed
[4] = system: STREPTOCOCCUS PYOGENES 930; experiment: In vitro antibacterial activity, MIC, BHI agar dilution; conditions: S. pyogenes 930, unit assumed
[5] = system: PSEUDOMONAS AERUGINOSA BMH10; experiment: as above; conditions: P. aeruginosa BMH10, unit assumed
[6] = system: CANDIDA ALBICANS CCH 442; experiment: as above; conditions: C. albicans CCH 442, unit assumed
[7] = system: STAPHYLOCOCCUS AUREUS ATCC 6538P; experiment: as above; conditions: S. aureus ATCC 6538P, 35-37° C., 20 to 24 hours, unit assumed
[8] = system: PSEUDOMONAS CEPACIA 296I; experiment: as above; conditions: P. cepacia 296I, unit assumed
[9] = system: STREPTOCOCCUS PYOGENES EES61; experiment: as above; conditions: S. pyogenes EES61, unit assumed
[10] = system: STREPTOCOCCUS BOVIS A-5169; experiment: as above; conditions: S. bovis A-5169, unit assumed
[11] = system: STAPHYLOCOCCUS EPIDERMIDIS 3519; conditions: S. epidermidis 3519; BHI agar; unit assumed
[12] = system: STAPHYLOCOCCUS AUREUS A5177; experiment: In vitro antibacterial activity, MIC, BHI agar dilution; conditions: S. aureus A5177, unit assumed
[13] = system: ESCHERICHIA COLI SS; experiment: as above; conditions: E. coli SS, unit assumed
[14] = system: ENTEROBACTER AEROGENES ATCC 13048; experiment: as above; conditions: E. aerogenes ATCC 13048, unit assumed
[15] = system: STREPTOCOCCUS PYOGENES PIU 2548; experiment: as above; conditions: S. pyogenes PIU 2548, unit assumed
[16] = system: ESCHERICHIA COLI JUHL; conditions: E. coli JUHL; BHI agar; unit assumed
[17] = system: STAPHYLOCOCCUS AUREUS CMX 553; experiment: In vitro antibacterial activity, MIC, BHI agar dilution; conditions: S. aureus CMX 553, unit assumed
[18] = system: PSEUDOMONAS AERUGINOSA K799/61; experiment: as above; conditions: P. aeruginosa K799/61, unit assumed
[19] = system: ESCHERICHIA COLI KNK 437; conditions: E. coli KNK 437; BHI agar; unit assumed
[20] = system: ESCHERICHIA COLI H560; experiment: In vitro antibacterial activity, MIC, BHI agar dilution; conditions: E. coli H560, unit assumed
[21] = system: STAPHYLOCOCCUS AUREUS CMX 642A; experiment: as above; conditions: S. aureus CMX 642A, unit assumed
[22] = system: STAPHYLOCOCCUS AUREUS NCTC10649M; experiment: as above; conditions: S. aureus NCTC10649M, unit assumed
[23] = system: PSEUDOMONAS AERUGINOSA K799/WT; experiment: as above; conditions: P. aeruginosa K799/WT, unit assumed
[24] = system: M[…] ATCC 4698; experiment: as above; conditions: M. luteus ATCC 4698, unit assumed
In short: (§1)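 MIC was read visually as the lowest drug concentration showing no growth, a slight haze or sparsely isolated colonies relative to a compound-free BHI plate. Plates held serial aqueous dilutions in BHI agar, were spot-inoculated with 1:100 (or 1:10) culture dilutions and incubated 20 to 24 hours at 35-37° C.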

[25] = system: STR[…] 508; experiment: as above; conditions: S. agalactiae CMX 508, unit assumed
In short: as §1

[26] = system: M[…] ATCC 9341; experiment: as above; conditions: M. luteus ATCC 9341, unit assumed
In short: as §1

[27] = system: EN[…] ATCC 8043; experiment: as above; conditions: E. faecium ATCC 8043, unit assumed
In short: as §1

[28] = system: STAPHYLOCOCCUS AUREUS 1775; experiment: as above; conditions: S. aureus 1775, unit assumed
[29] = system: PSEUDOMONAS AERUGINOSA 5007; experiment: as above; conditions: P. aeruginosa 5007, unit assumed
[30] = system: PSEUDOMONAS AERUGINOSA DPHD-2862; experiment: as above; conditions: P. aeruginosa DPHD-2862, unit assumed
[31] = system: ESCHERICHIA COLI DC-2; experiment: as above; conditions: E. coli DC-2, unit assumed
[32] = system: MYCOBACTERIUM SMEGMATIS ATCC 114; experiment: as above; conditions: M. smegmatis ATCC 114, unit assumed
[33] = system: STAPHYLOCOCCUS AUREUS A-5278; experiment: as above; conditions: S. aureus A-5278, unit assumed

Compound CC[C@H]1OC(=O)[C@H](C)C(=O)[C@H](C)[C@@H](O[C@@H]2O[C@H](C)C[C@H](N(C)C)[C@H]2O)[C@](C)(OC)C[C@@H](C)C2=NC3CN(CCc4ccc(N)cc4)CC3N3C(=O)O[C@@]1(C)[C@H]3[C@H]2C (stereo partly drawn) [Example 121] has an MIC [1] of 100 µg/mL (≈ 125 µM), an MIC [2] of over 100 µg/mL and an MIC [3] of over 100 µg/mL. The MIC [4] was over 100 µg/mL, the MIC [5] was 100 µg/mL (≈ 125 µM) and the MIC [6] was over 100 µg/mL. It also gave an MIC [7] of 0.78 µg/mL (≈ 0.977 µM), an MIC [8] of 100 µg/mL (≈ 125 µM) and an MIC [9] of 0.02 µg/mL (≈ 0.0251 µM). For the same compound, the MIC [10] was 0.01 µg/mL (≈ 0.0125 µM), the MIC [11] was 0.78 µg/mL (≈ 0.977 µM) and the MIC [12] was 0.78 µg/mL (≈ 0.977 µM). The MIC [13] was 0.2 µg/mL (≈ 0.251 µM), the MIC [14] was 100 µg/mL (≈ 125 µM) and the MIC [15] was 0.78 µg/mL (≈ 0.977 µM). The MIC [16] was 50 µg/mL (≈ 62.7 µM), the MIC [17] was 0.78 µg/mL (≈ 0.977 µM) and the MIC [18] was 0.39 µg/mL (≈ 0.489 µM). It also gave an MIC [19] of 50 µg/mL (≈ 62.7 µM), an MIC [20] of 25 µg/mL (≈ 31.3 µM) and an MIC [21] of 0.78 µg/mL (≈ 0.977 µM). It also gave an MIC [22] of 0.78 µg/mL (≈ 0.977 µM), an MIC [23] of over 100 µg/mL and an MIC [24] of 0.2 µg/mL (≈ 0.251 µM). For the same compound, the MIC [25] was 0.02 µg/mL (≈ 0.0251 µM), the MIC [26] was 0.05 µg/mL (≈ 0.0627 µM) and the MIC [27] was 0.05 µg/mL (≈ 0.0627 µM). For the same compound, the MIC [28] was over 100 µg/mL, the MIC [29] was over 100 µg/mL and the MIC [30] was over 100 µg/mL. It also gave an MIC [31] of 50 µg/mL (≈ 62.7 µM), an MIC [32] of 6.2 µg/mL (≈ 7.77 µM) and an MIC [33] of over 100 µg/mL.
With CC[C@H]1OC(=O)[C@H](C)C(=O)[C@H](C)[C@@H](O[C@@H]2O[C@H](C)C[C@H](N(C)C)[C@H]2O)[C@](C)(OC)C[C@@H](C)C2=NC3CN(CCc4ccc(NC(C)=O)cc4)CC3N3C(=O)O[C@@]1(C)[C@H]3[C@H]2C (stereo partly drawn) [Example 122] the MIC [1] was over 100 µg/mL, the MIC [2] was over 100 µg/mL and the MIC [3] was over 100 µg/mL. For the same compound, the MIC [4] was 100 µg/mL (≈ 119 µM), the MIC [5] was over 100 µg/mL and the MIC [6] was over 100 µg/mL. The MIC [7] was 0.39 µg/mL (≈ 0.464 µM), the MIC [8] was over 100 µg/mL and the MIC [9] was 0.02 µg/mL (≈ 0.0238 µM). For the same compound, the MIC [10] was 0.02 µg/mL (≈ 0.0238 µM), the MIC [11] was 0.78 µg/mL (≈ 0.928 µM) and the MIC [12] was 0.39 µg/mL (≈ 0.464 µM). For the same compound, the MIC [13] was 0.78 µg/mL (≈ 0.928 µM), the MIC [14] was 100 µg/mL (≈ 119 µM) and the MIC [15] was 6.2 µg/mL (≈ 7.38 µM). It also gave an MIC [16] of 100 µg/mL (≈ 119 µM), an MIC [17] of 0.78 µg/mL (≈ 0.928 µM) and an MIC [18] of 0.78 µg/mL (≈ 0.928 µM). It also gave an MIC [19] of 50 µg/mL (≈ 59.5 µM), an MIC [20] of 50 µg/mL (≈ 59.5 µM) and an MIC [21] of 0.78 µg/mL (≈ 0.928 µM). The MIC [22] was 0.78 µg/mL (≈ 0.928 µM), the MIC [23] was over 100 µg/mL and the MIC [24] was 1.56 µg/mL (≈ 1.86 µM). It also gave an MIC [25] of 0.1 µg/mL (≈ 0.119 µM), an MIC [26] of 0.05 µg/mL (≈ 0.0595 µM) and an MIC [27] of 0.78 µg/mL (≈ 0.928 µM). For the same compound, the MIC [28] was over 100 µg/mL, the MIC [29] was over 100 µg/mL and the MIC [30] was over 100 µg/mL. For the same compound, the MIC [31] was 100 µg/mL (≈ 119 µM), the MIC [32] was 25 µg/mL (≈ 29.8 µM) and the MIC [33] was over 100 µg/mL.
